Source: US8575150B2, “Triazole derivatives for treatment of Alzheimer's disease” (Merck Sharp & Dohme Corp., priority 2008, dated 2013)
pIC50: −log10 of the molar value.

Target: T1, γ-secretase, Aβ(1-42) production in SH-SY5Y neuroblastoma cells overexpressing SPA4CT (Homo sapiens, UniProt P49768)
T1 construct: Human SH-SY5Y neuroblastoma cells overexpressing the direct γ-secretase substrate SPA4CT; endogenous in cells; host or cells: human SH-SY5Y neuroblastoma cells, transfected only with the substrate SPA4CT and induced with sodium butyrate
Assay: Cell-based γ-secretase assay, Aβ(42) detection
Conditions: overnight incubation
Protocol: Cell-Based γ-Secretase Assay
Human SH-SY5Y neuroblastoma cells overexpressing the direct γ-secretase substrate SPA4CT were induced with sodium butyrate (10 mM) for 4 hours prior to plating. Cells were plated at 35,000 cells/well/100 μl in 96-well plates in phenol red-free MEM/10% FBS, 50 mM HEPES, 1% Glutamine and incubated for 2 hrs at 37° C., 5% CO2.
Appropriate vehicle and inhibitor controls were used to determine the window of the assay.
After incubation overnight at 37° C., 5% CO2, 25 μl and […] were transferred into a standard Meso avidin-coated 96-well plate for detection of Aβ(40) and Aβ(42) peptides, respectively. 25 μl Meso Assay buffer (PBS, 2% BSA, 0.2% Tween-20) was added to the Aβ(40) wells followed by the addition of 25 μl of the respective antibody premixes to the wells:
Aβ(42) premix: 1 μg/mlruthenylated G2-11 antibody, 4 μg/ml; and biotinylated 4G8 antibody diluted in Origen buffer
(Biotinylated 4G8 antibody supplied by Signet Pathology Ltd; G2-10 and G2-11 antibodies supplied by Chemicon)
After overnight incubation of the assay plates on a shaker at 4° C., the Meso Scale Sector 6000 Imager was calibrated according to the manufacturer's instructions. After washing the plates 3 times with 150 μl of PBS per well, 150 μl Meso Scale Discovery read buffer was added to each well and the plates were read on the Sector 6000 Imager according to the manufacturer's instructions.
The total signal and the background were defined by the corresponding Me2SO and inhibitor controls.

SMILES	pIC50
O=C1C(n2cc(-c3ncc(-c4ccncc4)cn3)nn2)CCc2c(F)cccc2N1CC(F)(F)F (stereo not drawn) [Example 2, 6-fluoro-3-{4-[5-(pyridin-4-yl)pyrimidin-2-yl]-1H-1,2,3-triazol-1-yl}-1-(2,2,2-trifluoroethyl)-1,3,4,5-tetrahydro-2H-1-benzazepin-2-one]	5.88
COc1cc(-c2nc(C)no2)ccc1-c1cn(C2CCc3c(F)cccc3N(CC(F)(F)F)C2=O)nn1 (stereo not drawn) [Example 57, 6-fluoro-3-{4-[2-methoxy-4-(3-methyl-1,2,4-oxadiazol-5-yl)phenyl]-1H-1,2,3-triazol-1-yl}-1-(2,2,2-trifluoroethyl)-1,3,4,5-tetrahydro-2H-1-benzazepin-2-one]	6.37
O=C1C(n2cc(-c3ccc(Oc4cccnc4)cc3)nn2)CCc2c(F)cccc2N1CC(F)(F)F (stereo not drawn) [Example 61, 6-fluoro-3-{4-[4-(pyridin-3-yloxy)phenyl]-1H-1,2,3-triazol-1-yl}-1-(2,2,2-trifluoroethyl)-1,3,4,5-tetrahydro-2H-1-benzazepin-2-one]	6.27

Now those with a higher pIC50, led by results:

pIC50	SMILES
6.65	COc1cc(-c2cn(C3CCc4c(F)cccc4N(CC(F)(F)F)C3=O)nn2)ccc1Nc1cccnc1 (stereo not drawn) [Example 92, 6-fluoro-3-{4-[3-methoxy-4-(pyridin-3-ylamino)phenyl]-1H-1,2,3-triazol-1-yl}-1-(2,2,2-trifluoroethyl)-1,3,4,5-tetrahydro-2H-1-benzazepin-2-one]
7.08	O=C1C(n2cc(-c3ccc(-c4ccnnc4)cc3)nn2)CCc2c(F)cccc2N1CC(F)(F)F (racemic) [Example 123, (R) and (S)-6-fluoro-3-[4-(4-pyridazin-4-ylphenyl)-1H-1,2,3-triazol-1-yl]-1-(2,2,2-trifluoroethyl)-1,3,4,5-tetrahydro-2H-1-benzazepin-2-one]
7.10	COc1cc(-c2cn(C3CCc4ccccc4N(CC(F)(F)F)C3=O)nn2)ccc1-c1ccncc1 (stereo not drawn) [Example 1, 3-[4-(3-methoxy-4-pyridin-4-ylphenyl)-1H-1,2,3-triazol-1-yl]-1-(2,2,2-trifluoroethyl)-1,3,4,5-tetrahydro-2H-1-benzazepin-2-one]
